Data set [1] concerns Klebsiella pneumoniae (K. pneumoniae, ATCC700603). Format: cell-based. Conditions: 1 × 10^6 CFU/mL, MHB, 12 h, peptide 0-20 μM, absorbance at 600 nm, n = 5. The source says: (§1) Pseudomonas aeruginosa (P. aeruginosa, ATCC27853), Methicillin-Resistant Staphylococcus aureus (MRSA, 2104270609, clinically isolated strain), Escherichia coli (E. coli, ATCC25922), Klebsiella pneumoniae (K. pneumoniae, ATCC700603), Enterococcus faecalis (E. faecalis, ATCC29212), Candida krusei (C. krusei, ATCC6258), Candida albicans (C. albicans, ATCC90028), and Candida glabrata (C. glabrata, ATCCMYA-2950) were obtained from the First Affiliated Hospital of Xi’an Jiaotong University. Bacterial strains were cultured in MHA or MHB. Fungal strains were cultured in PDA or PDB.
(§2) Strains were incubated in MHB or PDB. After growing for 12–16 h at 37 °C, 200 rpm, 100 μL of 1 × 10^6 CFU/mL of the strains was seeded into 96-well plates and incubated with fresh culture medium containing various antimicrobial peptides (peptide concentration: 0, 0.5, 1.0, 2.0, 3.0, 5.0, 10, 15 or 20 μM) for 12 h. Each concentration was repeated five times. Absorbance at 600 nm was measured using the Multilabel Reader Varioskan Flash (Thermo Fisher). […] (1)

The subject of data set [2] is Candida albicans (C. albicans, ATCC90028). The format is cell-based. Conditions: 1 × 10^6 CFU/mL, PDB, 12 h, peptide 0-20 μM, absorbance at 600 nm, n = 5.
From the text: as §1, §2

Data set [3] concerns Candida krusei (C. krusei, ATCC6258). The format is cell-based. Particulars: 12 h, absorbance at 600 nm, n = 5.
From the text: as §1, §2

The subject of data set [4] is Pseudomonas aeruginosa (P. aeruginosa, ATCC27853). Format: cell-based. Conditions: 1 × 10^6 CFU/mL, MHB, 12 h, peptide 0-20 μM, absorbance at 600 nm, n = 5.
From the text: as §1, §2

The subject of data set [5] is Enterococcus faecalis (E. faecalis, ATCC29212). Format: cell-based. Conditions: 1 × 10^6 CFU/mL, MHB, 12 h, peptide 0-20 μM, absorbance at 600 nm, n = 5.
From the text: as §1, §2

The test system of data set [6] is Methicillin-Resistant Staphylococcus aureus (MRSA, 2104270609, clinically isolated strain). The format is cell-based. Conditions: 1 × 10^6 CFU/mL, MHB, 12 h, peptide 0-20 μM, absorbance at 600 nm, n = 5.
From the text: as §1, §2

The subject of data set [7] is Escherichia coli (E. coli, ATCC25922). Format: cell-based. Conditions: 1 × 10^6 CFU/mL, MHB, 12 h, peptide 0-20 μM, absorbance at 600 nm, n = 5.
From the text: as §1, §2

Data set [8] has as its system Candida glabrata (C. glabrata, ATCCMYA-2950). Format: cell-based. Conditions: 1 × 10^6 CFU/mL, PDB, 12 h, peptide 0-20 μM, absorbance at 600 nm, n = 5.
From the text: as §1, §2

Data set [9] in a line: Peptide stability in water by HPLC. Conditions: 10 mg/mL in water, 37 °C, 200 rpm, 0 and 48 h, HPLC 220 nm, repeated three times. Format: physicochemical. The procedure:
(§3) Antimicrobial peptides were dissolved in water or rat serum with a concentration of 10 mg/mL. The solution was incubated at 37 °C, 200 rpm for different time periods, and diluted 50 times for the HPLC analysis. In water, the incubation time was 0 h and 48 h. In rat serum, the incubation time was 0, 2, 4, 7, 12, 24 or 48 h. Each incubation condition was repeated three times. HPLC was conducted on a Waters HPLC system, which consisted of a 2996 photodiode array detector, a 2695 separation module and a temperature control column oven. Column: Sinochrom ODS-BP, 5 μm, 4.6 × 250 mm (Dalian Elite Analytical Instruments Co., Ltd., Dalian, China). Mobile phase: A: 100% ACN + 0.1% TFA; B: 100% Water + 0.1% TFA. Gradient elution: 0–20 min, 95% B–100% A; 20–25 min, 100% A. Detection wavelength: 220 nm. Flow rate: 1 mL/min. Sample volume: 50 μL (0.2 mg/mL).

Data set [10] in a line: Peptide stability in rat serum by HPLC. The format is in vitro ADME. Particulars: 10 mg/mL in rat serum, 37 °C, 200 rpm, repeated three times. The procedure: as §3
The next data set concerns MRSA. The procedure:
(§4) The scalded mice models combined with SSTIs by MRSA or C. albicans were constructed. Fifty normal male Kunming mice (5–6 weeks old) weighing ~25 g were anesthetized by isoflurane using a small animal anesthesia machine (R640, RWD Life Science, China). After skin preparation and disinfection, a custom-made circular iron (diameter: 8 mm) (shown in Figure S4) was applied to both sides of the spine of the mice for 10 s at 300 °C, resulting in four scalded wounds. Mice were injected subcutaneously with 5 mg/kg meloxicam (Aladdin, Shanghai, China) for four days (once per day) after scalding for pain relief. Two days after scalding, the skin tissues of the scalded areas were removed carefully, and about 30 μL of 1 × 10^7 CFU/mL of MRSA or C. albicans was applied evenly onto the surfaces of the wounds. The mice were returned to the original feeding environment after the microbial fluid was completely absorbed (1.5–2 h), with two mice per cage. Corncob granules with SPF level were used as padding.
(§5) Two days after microbe inoculating, the scalded wounds of each mouse were divided into four groups randomly. […] The mice were returned to the original feeding environment after the solutions were completely absorbed. The treatment lasted for 12–16 days. Photographs of the wound areas were taken every two days using an iPhone 11 and the wound areas were measured every two days using Image J software (152-win-java8, Bethesda, MD, USA). The average wound areas on day two were used as the reference (100% unhealed) to normalized wound areas. Skin tissues of the wound areas were removed carefully at different time points (n = 5 for each time point) and weighted in a sterile environment. For MRSA infection, 10 mg of the wound tissues was dispersed into 1000 μL of sterile saline solution and the tissue solution was ground into suspension in a tissuelyser (Tissuelyser LT, Servicebio). Then, the tissue suspension was diluted with sterile saline solution 10 times and plated on MHA with a sample volume of 50 μL. For C. albicans infection, 10 mg of the wound tissues was dispersed into 200 μL of sterile saline solution and the tissue solution was also ground into suspension in the tissuelyser. The tissue suspension was then plated on PDA directly with a sample volume of 20 μL. After culturing overnight, the colonies were counted using Image J software or human eyes. In addition, the skin tissues of the wound area were removed carefully at different time points and dispersed into a 4% paraformaldehyde solution for further use.
(§6) The hematoxylin and eosin staining in this study was carried out by Servicebio (Wuhan, China). Briefly, the obtained skin tissues were soaked in 4% paraformaldehyde solution (Beyotime, China) and fixed for more than 24 h. Then, they were dehydrated and embedded with paraffin, and tissue sections having thicknesses of 4 μm were prepared. After deparaffinization and rehydration, hematoxylin and eosin staining was performed.

The conditions of data set [11]: unstable in serum; cited from earlier work. The source says:
The venom of scorpions, which has been proven to kill Gram-negative and Gram-positive bacteria, fungi, viruses and even tumor cells, are a rich source of antimicrobial peptides. Androctonus amoreuxi Antimicrobial Peptide 1 (AamAP1), identified from the venom-derived cDNA library of the North African scorpion, Androctonus amoeruxi, is a new type of host defense peptide. With broad-spectrum antimicrobial properties, it has been posited that AamAP1 kills bacteria cells through membrane disruption, which will not induce bacterial resistance. However, there are still some disadvantages in us ...

A further data set concerns C. albicans. Conditions: topical 50 μM twice a day. The procedure:
as §4, §5, §6

[12] abbreviates: C. albicans-infected scald wounds, mice, n = 10.
[13] abbreviates: colony count of wound tissue on PDA, n = 5.

Converted amounts (≈) assume the structure as drawn. Structures can show the parent of a compound that is named as a salt. Where no end group is shown, it is not given here. Bounds are passed on as bounds.

The values below come from publication PMC9503518, “Antibacterial and Antifungal Properties of a Novel Antimicrobial Peptide GK-19 and Its Application in Skin and Soft Tissue Infections Induced by MRSA or Candida albicans” (Pharmaceutics, 2022).

For the compound `CC[C@H](C)[C@H](NC(=O)[C@H](C)NC(=O)[C@H](Cc1c[nH]cn1)NC(=O)[C@@H]1CCCN1C(=O)[C@@H](NC(=O)[C@H](CC(C)C)NC(=O)[C@H](CO)NC(=O)[C@H](Cc1ccccc1)NC(=O)[C@H](CC(C)C)NC(=O)[C@@H](N)Cc1ccccc1)[C@@H](C)CC)C(=O)NCC(=O)NCC(=O)N[C@@H](CC(C)C)C(=O)N[C@H](C(=O)N[C@@H](CO)C(=O)N[C@@H](C)C(=O)N[C@@H](Cc1ccccc1)C(=O)N[C@@H](CCCCN)C(=O)O)[C@@H](C)CC` [AamAP1, Androctonus amoreuxi Antimicrobial Peptide 1, reference compound], in [1], the “Minimum inhibitory concentration (MIC), K. pneumoniae” value was > 20 µM. Further, the “Minimum inhibitory concentration (MIC), C. albicans” value in data set [2] is > 20 µM. Further, in [3] (1 × 10^6 CFU/mL, PDB, peptide 0-20 μM), the “Minimum inhibitory concentration (MIC), C. krusei” value was 20 µM (≈ 38.6 µg/mL). Further, the “inhibition of C. krusei” value in [3] (within 0-20 μM) is given as 90%. The “Minimum inhibitory concentration (MIC), P. aeruginosa” value in [4] was > 20 µM. Moreover, the “Minimum inhibitory concentration (MIC), E. faecalis” value in data set [5] was > 20 µM. For the same compound, the “Minimum inhibitory concentration (MIC), MRSA” value in [6] was > 20 µM. Further, the “Minimum inhibitory concentration (MIC), E. coli” value in data set [7] was > 20 µM. For the same compound, the “Minimum inhibitory concentration (MIC), C. glabrata” value in [8] is > 20 µM. Besides, the “time for which structural stability was retained in water” value in data set [9] is given as ≥ 48 h. Moreover, the metabolised at 7 h, 10 mg/mL in data set [10] (7 h, HPLC peak area 220 nm, read-out: peptide degraded after seven hours of co-incubation with rat serum) was > 65%. For the same compound, the “change of HPLC peak after incubation in rat serum for two hours” value in data set [10] (two hours, HPLC 220 nm) is given as “position of its chromatographic peak moved backward”. Also, in the data set on MRSA (mouse, in vivo, 2 h, 50 μM), the “MRSA suppressed (inhibition rate) at day eight compared with saline solution groups” value was “more than 90%”. Besides, the predicted half-life entry in data set [11] was “less than two hours”.
For `CCC[C@@H]1C[C@@H](C(=O)N[C@@H]([C@H]2O[C@H](SC)[C@H](O)[C@@H](O)[C@H]2O)[C@H](C)Cl)N(C)C1` [CDHC, clindamycin hydrochloride], the “wound area healed on day eight” value with MRSA (MRSA-infected scald wounds, mice, topical 50 μM twice a day, day 2 area = 100% unhealed, n = 10) is given as “more than 45%”. The “unhealed wounds on day 16” value in the data set with MRSA (MRSA-infected scald wounds, mice, topical 50 μM twice a day, n = 10) is given as “completely disappeared”.
Consider `OC(Cn1cncn1)(Cn1cncn1)c1ccc(F)cc1F` [FCZ, fluconazole], for which, in the data set with C. albicans (setting [12]), the “area of the wounds healed on day 10” value is listed as “more than 95%” and the “unhealed wounds on day 12” value is listed as “completely disappeared”. Further, in the data set on C. albicans (setting [13]), the “C. albicans in wound tissue on day 12” value was “no C. albicans detected” and the “C. albicans suppressed (inhibition rate) at day eight compared with saline solution groups” value was ~ 98%.
FLFKLIPKAIKKLISKFK [AamAP1-Lysine]: the predicted half-life result in data set [11] is listed as “less than two hours”.
